These results are taken from US20210087163A1, “PHENOXY THIOPHENE SULFONAMIDES AND OTHER COMPOUNDS FOR USE AS INHIBITORS OF BACTERIAL GLUCURONIDASE” (NORTH CAROLINA CENTRAL UNIVERSITY, priority 2010, published 2021).

A word on the IC50: it is the concentration that inhibits the measured activity by half. For orientation: viability means the share of living cells, or the viability signal relative to a control.

One assay deals with E. coli β-glucuronidase (Escherichia coli, UniProt P05804). Nature of the assay: biochemical.
Sequence of E. coli β-glucuronidase (P05804 whole entry): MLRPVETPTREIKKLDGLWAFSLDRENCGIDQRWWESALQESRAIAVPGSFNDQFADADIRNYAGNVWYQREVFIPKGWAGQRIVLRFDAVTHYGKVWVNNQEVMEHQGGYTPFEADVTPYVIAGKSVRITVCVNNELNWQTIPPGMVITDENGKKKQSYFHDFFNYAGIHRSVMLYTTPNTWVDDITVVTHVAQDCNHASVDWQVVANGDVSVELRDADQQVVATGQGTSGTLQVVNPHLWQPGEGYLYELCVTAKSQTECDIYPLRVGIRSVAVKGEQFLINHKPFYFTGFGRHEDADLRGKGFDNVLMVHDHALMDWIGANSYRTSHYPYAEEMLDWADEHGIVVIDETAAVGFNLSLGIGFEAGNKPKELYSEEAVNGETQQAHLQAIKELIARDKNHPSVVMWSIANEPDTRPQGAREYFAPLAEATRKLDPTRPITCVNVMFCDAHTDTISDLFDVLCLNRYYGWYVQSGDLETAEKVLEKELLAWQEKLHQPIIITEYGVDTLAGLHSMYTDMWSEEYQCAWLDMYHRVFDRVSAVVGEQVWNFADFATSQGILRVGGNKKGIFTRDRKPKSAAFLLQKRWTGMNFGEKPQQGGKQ
The target of another assay is E. coli GUS (Escherichia coli, UniProt P05804). Nature of the assay: GUS enzyme assay, manual version (purified E. coli GUS, 4MUG). The class given is biochemical. The protocol:
The semi-automated GUS high throughput enzyme assay was performed as previously described and was used to screen the Prestwick Chemical Collection. The follow-up studies were performed manually in a similar manner with the exception of plate type and volumes, as briefly outlined here. Compound stock solutions were made in 100% DMSO. […] Final concentrations in the assembled assay were 50 mM HEPES. pH 7.4, 0.01% Triton X-100, 1% DMSO. […] The enzyme reaction was allowed to proceed for 20 minutes at 23° C., and was terminated by the addition of 40 μl of a 1M sodium carbonate solution. […] Fluorescence data, expressed in relative fluorescence units (RFU), were normalized to DMSO (100% activity) and “no enzyme” (0% activity) controls as maximum and minimum responses, respectively. The Bovine taurus GUS enzyme assay was performed in an identical manner except Bovine taurus GUS enzyme (1 nM) was used instead of bacterial GUS. The IC50 values and Hill slopes were calculated from concentration response data using GraphPad Prism software (GraphPad Software Inc., La Jolla, Calif.) employing either four-parameter or a three parameter (fixed bottom) curve fit.

For another assay, the system named is E. coli cells. Put plainly: microbe, parasite or virus in culture. As to conditions: Escherichia coli, 2 h.
Assay [1] concerns the target endogenous GUS activity in whole E. coli cells (Escherichia coli, UniProt P05804). Put plainly: GUS cell based assay (whole E. coli cells, 4MUG). The settings on record: for potency shift, less potent in the cell-based assay compared to the enzyme assay: less potent in cells. The protocol:
An E. coli cell based assay was developed in order to assess the activity of these drugs against whole cells, instead of purified enzyme. We took advantage of the well-known specificity and sensitivity of the 4MUG substrate to detect GUS activity in E. coli cells. This assay mimicked the enzyme assay in format, with the GUS enzyme replaced by live log-phase E. coli cells and the assay incubated for a longer time (2 hr) to detect GUS activity in these un-modified cells.
Cultures of E col (DH5α) carrying the empty expression vector pCMV5 were grown over night in LB containing carbenicilin (50 μM) and then used to initiate fresh LB/carbenicillin cultures adjusted to an initial OD of 0.1. These cultures were allowed to reach an OD of 0.6 and then washed twice with 50 mM HEPES, pH 7.4 containing carbenicillin 50 μM, and concentrated by centrifugation to an OD of 1 for use in the assay. The GUS cell based assay was performed in an identical manner as the enzyme assay except the Triton X-100 was left out of the assay buffer, the E. coli cells replaced the enzyme and the reaction was allowed to proceed for 2 hrs at 37° C. The resulting data was analyzed as outlined for the enzyme assay.

The subject of another assay is MAO. The settings on record: read-out: reported IC50 for MAO; depending on subclass of MAO-A or MAO-B, or total activity; cited from earlier work.
For assay [2], the target named is T1, mammalian GUS purified from Bovine taurus liver (Bos taurus, UniProt A3KMY8).
T1 sequence (A3KMY8 1-652): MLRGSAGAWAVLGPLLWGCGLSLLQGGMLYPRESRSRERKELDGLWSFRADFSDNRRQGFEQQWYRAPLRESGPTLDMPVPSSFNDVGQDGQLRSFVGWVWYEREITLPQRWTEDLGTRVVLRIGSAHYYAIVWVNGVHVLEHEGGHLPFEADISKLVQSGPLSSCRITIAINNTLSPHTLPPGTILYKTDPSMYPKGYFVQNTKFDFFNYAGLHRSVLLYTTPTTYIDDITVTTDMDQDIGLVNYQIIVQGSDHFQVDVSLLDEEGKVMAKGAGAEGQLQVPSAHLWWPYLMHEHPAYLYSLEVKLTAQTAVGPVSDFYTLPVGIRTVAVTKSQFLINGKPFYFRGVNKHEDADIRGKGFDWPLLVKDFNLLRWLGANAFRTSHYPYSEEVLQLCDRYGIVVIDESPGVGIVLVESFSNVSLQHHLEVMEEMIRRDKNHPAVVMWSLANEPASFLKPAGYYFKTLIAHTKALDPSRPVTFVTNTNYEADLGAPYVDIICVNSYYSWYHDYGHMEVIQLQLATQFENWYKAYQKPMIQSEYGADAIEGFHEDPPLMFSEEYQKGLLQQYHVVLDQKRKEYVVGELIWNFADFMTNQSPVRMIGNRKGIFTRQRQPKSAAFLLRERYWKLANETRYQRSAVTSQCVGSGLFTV
Put plainly: Bovine taurus GUS enzyme assay. The format is biochemical.

The target in the next assay is monoamine oxidase. As to conditions: read-out: reported in vitro IC50 for inhibiting monoamine oxidase; rat brain homogenates; cited from earlier work.
[3] abbreviates: running text, read-out: average IC50 in the E. coli GUS enzyme assay.
Setting [4] is: running text, read-out: IC50 in the E. coli cell-based assay.

Molecules are shown by their SMILES. “Also recorded” adds a separate entry of the source. Where two headings read alike, the source gives them in different places.

Sequence of E. coli GUS (P05804 whole entry): as the sequence (P05804 whole entry) above
Sequence of endogenous GUS activity in whole E. coli cells (P05804 whole entry): as the sequence (P05804 whole entry) above

On to `CC1(C)Cc2cccc(Oc3ccc(S(=O)(=O)NCc4cccc5ccccc45)s3)c2O1` [BRITE-354502], for which the IC50 at E. coli β-glucuronidase (read-out: IC50, β-Glucuronidase Inhibitory activity of phenoxythiophene sulfonamides) worked out at 965000 nM.
`OC(c1cc(C(F)(F)F)nc2c(C(F)(F)F)cccc12)C1CCCCN1` (stereo not drawn) [Mefloquine, mefloquine]: the IC50 on E. coli GUS (listed as mefloquine hydrochloride, read-out: average IC50 in the E. coli GUS enzyme assay) is 1210 nM; in assay [1] (read-out: IC50 in the E. coli cell-based assay) it was 6000 nM. Besides, the viability at 10 µM in the assay with E. coli cells (read-out: viability of E. coli) was 100%. Also, the “potency shift, less potent in the cell-based assay compared to the enzyme assay” value in assay [1] is given as “over 4.9 fold”; in assay [1] (listed as mefloquine) it was 5 fold.
`NNCCc1ccccc1` [Phenelzine, phenelzine]: the IC50 was 70 to 900 nM in the assay with MAO; 2280 nM at E. coli GUS (running text, listed as phenelzine, read-out: average IC50 in the E. coli GUS enzyme assay); 2200 nM on E. coli GUS (setting [3]); 7120 nM in assay [1] (average of at least three determinations, 2 hrs at 37° C., read-out: E. coli Cell-Based Assay IC50 ± SD). Also, on E. coli β-glucuronidase (10 µM), the “inhibition in the Prestwick collection screen” value is reported as more than 50%. Besides, at E. coli β-glucuronidase (read-out: inhibition in the Prestwick collection screen), the inhibition at 10 µM was 62%. In addition, the “potency shift, less potent in the cell-based assay compared to the enzyme assay” value in assay [1] turned out to be 2.6 fold.
Regarding `O=C(CCNNC(=O)c1ccncc1)NCc1ccccc1` [Nialamide, nialamide], in assay [2], the “activity against purified mammalian GUS, in words” value is recorded as “no significant activity; also recorded: do not inhibit”. The IC50 in assay [2] (average of at least three determinations, read-out: B. taurus GUS Enzyme Assay IC50 ± SD) was 74800 nM; in assay [2] (running text, read-out: IC50 against purified mammalian GUS), approximately 75000 nM; on monoamine oxidase it was 2600 to 13000 nM; at E. coli GUS (setting [3]), 71 nM; in assay [1] (setting [4]), 17 nM. For the same compound, in assay [1] (more potent in cells), the “potency shift, more potent in the cell-based assay compared to the E. coli GUS enzyme assay” value was 4 fold.
`NC[C@H]1O[C@H](O[C@H]2[C@H](O)[C@@H](O[C@H]3O[C@H](CO)[C@@H](O)[C@H](N)[C@H]3O)[C@H](N)C[C@@H]2N)[C@H](O)[C@@H](O)[C@@H]1O` [Kanamycin]: in the assay with E. coli cells (read-out: reduction of activity in the viability assay), the inhibition at 50 µg/mL was more than 90%.
`Cc1cc(C(=O)NNCc2ccccc2)no1` [Isocarboxazid, isocarboxazid]: the “activity against purified mammalian GUS, in words” value in assay [2] is “no significant activity; also recorded: do not inhibit”. Also, the half-inhibitory concentration (IC50) on E. coli GUS (average of at least three determinations, read-out: E. coli GUS Enzyme Assay IC50 ± SD) was found to be 128 ± 56 nM; in assay [1] (setting [4]) it was 336 ± 120 nM.
